In US7608726B2, “Substituted indolepyridinium as anti-infective compounds” (Tibotec Pharmaceuticals Ltd., priority 2002, dated 2009):

What was measured:
wild type HIV-LAI strain = experiment: Antiviral cellular assay (MT4 cells, MTT), wild type HIV-1 strain LAI; type: cell-based; settings: Human immunodeficiency virus 1, MT4; read-out: EC50, inhibition of wild-type HIV-LAI strain
Method: The compounds of the present invention were examined for anti-viral activity in a cellular assay. […] The cellular assay was performed according to the following procedure.
(§1) HIV- or mock-infected MT4 cells were incubated for five days in the presence of various concentrations of the inhibitor. At the end of the incubation period, the replicating virus in the control cultures has killed all HIV-infected cells in the absence of any inhibitor. Cell viability was determined by measuring the concentration of MTT, a yellow, water soluble tetrazolium dye that is converted to a purple, water insoluble formazan in the mitochondria of living cells only. Upon solubilization of the resulting formazan crystals with isopropanol, the absorbance of the solution was monitored at 540 nm. The values correlate directly to the number of living cells remaining in the culture at the completion of the five day incubation. The inhibitory activity of the compound was monitored on the virus-infected cells and was expressed as EC50 and EC90. These values represent the amount of the compound required to protect 50% and 90%, respectively, of the cells from the cytopathogenic effect of the virus. The toxicity of the compound was measured on the mock-infected cells and was expressed as CC50, which represents the concentration of compound required to inhibit the growth of the cells by 50%. The selectivity index (SI) (ratio CC50/EC50) is an indication of the selectivity of the anti-HIV activity of the inhibitor. Wherever results are reported as e.g. pEC50 or pCC50 values, the result is expressed as the negative logarithm of the result expressed as EC50 or CC50 respectively.
As a measure of the broad spectrum activity of the present compounds, the EC50 was determined. […] The fold resistance rounded to the nearest integer is mentioned between brackets.
(§2) Row WT: pEC50 against wild type HIV-LAI strain. The toxicity (Tox) is expressed as the pCC50 value as determined with mock transfected cells. ND means not determined.

[1] = Microsomal metabolization, human liver microsomes; type: in vitro ADME; settings: liver microsomal fractions
Method: Aliquots of human liver microsomal fractions (prepared by centrifugation at 12000 g^−1) were transferred into 10 ml glass tubes that are immersed in ice. Subsequently, test compound was added to yield a final concentration of 10 μM test compound. After adding 500 μl of a co-factor solution (cofactor solution: 1 mg/ml glucose-6-phosphate, 1 mg/ml MgCl2.6H2O, 0.5 units/ml glucose-6-phosphate dehydrogenase in 0.5 M phohsphate buffer. pH 7.4), homogenisation buffer (homogenisation buffer: 1,15% KCl in 0.05 M phosphate buffer, pH 7.4) was added to give a final volume of 1 ml. The incubations, 30 or 120 minutes at 37° C., were initiated by adding 10 μl of a solution of nicontinamide adenine dinucleotide phosphate (1.25 mg/ml) in homogenisation buffer. After a preincubation during 5 minutes at 37° C., the tubes were continuously shaken at 100 oscillations/minute in a water bath. The reactions were terminated by addition of an equal volume of DMSO. Blank incubations containing boiled microsomal fractions were incubated under the same conditions as the drug incubations. The degree of metabolism was determined by direct measurement of the residual parent compound in the reaction mixture using LC-MS. In parallel, the residual anti-HIV activity in the reaction mixture was detected using a colorimetric anti-HIV assay as described in Pauwels et al. J. Virol. Methods 1988 (20) 309-321. The residual activity is defined as the percent difference in EC50 between the drug incubations and the blank incubations.
The amount of compound was determined using LC-MS at the time points indicated between brackets. The results are indicated as a % vis-à-vis the amount determined at the start of the experiment (time=0; normalized to 100%).

[2] = system: HIV mutant J (131L, L100I, K103N, E138G, Y181C, L214F); experiment: Antiviral cellular assay, mutant HIV strain J; type: cell-based; settings: EC50 mutant/EC50 wild type, rounded to nearest integer
Method: as §1, with “The toxicity of the compound was measured on the mock-infected cells and was expressed as CC50, which represents the concentration of compound required to inhibit the growth of the cells by 50%. The selectivity index (SI) (ratio CC50/EC50) is an indication of the selectivity of the anti-HIV activity of the inhibitor.” left out, “respectively. […]” for “respectively.”
as §2

[3] = system: HIV mutant I (K101E, K103N); experiment: Antiviral cellular assay, mutant HIV strain I; type: cell-based; settings: EC50 mutant/EC50 wild type, rounded to nearest integer
Method: as §1, with “The toxicity of the compound was measured on the mock-infected cells and was expressed as CC50, which represents the concentration of compound required to inhibit the growth of the cells by 50%. The selectivity index (SI) (ratio CC50/EC50) is an indication of the selectivity of the anti-HIV activity of the inhibitor.” left out, “respectively. […]” for “respectively.”
as §2

[4] = system: HIV mutant D (L100I; K103N); experiment: Antiviral cellular assay, mutant HIV strain D; type: cell-based; settings: EC50 mutant/EC50 wild type, rounded to nearest integer
Method: as §1, with “The toxicity of the compound was measured on the mock-infected cells and was expressed as CC50, which represents the concentration of compound required to inhibit the growth of the cells by 50%. The selectivity index (SI) (ratio CC50/EC50) is an indication of the selectivity of the anti-HIV activity of the inhibitor.” left out, “respectively. […]” for “respectively.”
as §2

HIV mutant E (F227C) = experiment: Antiviral cellular assay, mutant HIV strain E; type: cell-based; settings: EC50 mutant/EC50 wild type, rounded to nearest integer
Method: as §1, with “The toxicity of the compound was measured on the mock-infected cells and was expressed as CC50, which represents the concentration of compound required to inhibit the growth of the cells by 50%. The selectivity index (SI) (ratio CC50/EC50) is an indication of the selectivity of the anti-HIV activity of the inhibitor.” left out, “respectively. […]” for “respectively.”
as §2

HIV mutant F (Y188L) = experiment: Antiviral cellular assay, mutant HIV strain F; type: cell-based; settings: EC50 mutant/EC50 wild type, rounded to nearest integer
Method: as §1, with “The toxicity of the compound was measured on the mock-infected cells and was expressed as CC50, which represents the concentration of compound required to inhibit the growth of the cells by 50%. The selectivity index (SI) (ratio CC50/EC50) is an indication of the selectivity of the anti-HIV activity of the inhibitor.” left out, “respectively. […]” for “respectively.”
as §2

[5] = system: HIV mutant K (multiple RT mutations, Table 1); experiment: Antiviral cellular assay, mutant HIV strain K; type: cell-based; settings: EC50 mutant/EC50 wild type, rounded to nearest integer
Method: as §1, with “The toxicity of the compound was measured on the mock-infected cells and was expressed as CC50, which represents the concentration of compound required to inhibit the growth of the cells by 50%. The selectivity index (SI) (ratio CC50/EC50) is an indication of the selectivity of the anti-HIV activity of the inhibitor.” left out, “respectively. […]” for “respectively.”
as §2

[6] = system: HIV mutant C (L100I; K103N); experiment: Antiviral cellular assay, mutant HIV strain C; type: cell-based; settings: EC50 mutant/EC50 wild type, rounded to nearest integer
Method: as §1, with “The toxicity of the compound was measured on the mock-infected cells and was expressed as CC50, which represents the concentration of compound required to inhibit the growth of the cells by 50%. The selectivity index (SI) (ratio CC50/EC50) is an indication of the selectivity of the anti-HIV activity of the inhibitor.” left out, “respectively. […]” for “respectively.”
as §2

HIV mutant B (K103N) = experiment: Antiviral cellular assay, mutant HIV strain B; type: cell-based; settings: EC50 mutant/EC50 wild type, rounded to nearest integer
Method: as §1, with “The toxicity of the compound was measured on the mock-infected cells and was expressed as CC50, which represents the concentration of compound required to inhibit the growth of the cells by 50%. The selectivity index (SI) (ratio CC50/EC50) is an indication of the selectivity of the anti-HIV activity of the inhibitor.” left out, “respectively. […]” for “respectively.”
as §2

[7] = system: HIV mutant G (V106A, F227L); experiment: Antiviral cellular assay, mutant HIV strain G; type: cell-based; settings: EC50 mutant/EC50 wild type, rounded to nearest integer
Method: as §1, with “The toxicity of the compound was measured on the mock-infected cells and was expressed as CC50, which represents the concentration of compound required to inhibit the growth of the cells by 50%. The selectivity index (SI) (ratio CC50/EC50) is an indication of the selectivity of the anti-HIV activity of the inhibitor.” left out, “respectively. […]” for “respectively.”
as §2

[8] = system: HIV mutant H (K103N, Y181C); experiment: Antiviral cellular assay, mutant HIV strain H; type: cell-based; settings: EC50 mutant/EC50 wild type, rounded to nearest integer
Method: as §1, with “The toxicity of the compound was measured on the mock-infected cells and was expressed as CC50, which represents the concentration of compound required to inhibit the growth of the cells by 50%. The selectivity index (SI) (ratio CC50/EC50) is an indication of the selectivity of the anti-HIV activity of the inhibitor.” left out, “respectively. […]” for “respectively.”
as §2

HIV mutant A (Y181C) = experiment: Antiviral cellular assay, mutant HIV strain A; type: cell-based; settings: EC50 mutant/EC50 wild type, rounded to nearest integer
Method: as §1, with “The toxicity of the compound was measured on the mock-infected cells and was expressed as CC50, which represents the concentration of compound required to inhibit the growth of the cells by 50%. The selectivity index (SI) (ratio CC50/EC50) is an indication of the selectivity of the anti-HIV activity of the inhibitor.” left out, “respectively. […]” for “respectively.”
as §2

HIV-2 = experiment: Antiviral cellular assay, HIV-2; type: cell-based; settings: Human immunodeficiency virus 2; read-out: pEC50 towards HIV-2 (converted)
Method: as §1, with “The toxicity of the compound was measured on the mock-infected cells and was expressed as CC50, which represents the concentration of compound required to inhibit the growth of the cells by 50%. The selectivity index (SI) (ratio CC50/EC50) is an indication of the selectivity of the anti-HIV activity of the inhibitor.” left out
as §2

[9] = system: SIV (simian immunodeficiency virus); experiment: Antiviral cellular assay, SIV; type: cell-based; settings: read-out: pEC50 towards SIV (converted)

With `N#Cc1cc2c(c3ccccc3n2CCN2CCCC2)n(-c2ccc([N+](=O)[O-])cc2)c1=O` [Compound 13, 1-(4-Nitro-phenyl)-2-oxo-5-(2-pyrrolidin-1-yl-ethyl)-2,5-dihydro-1H-pyrido[3,2-b]-indole-3-carbonitrile] the EC50 (wild type HIV-LAI strain) was under 1 µM and the “hepatic first pass metabolization (microsomal)” value [1] was “little or no hepatic first pass metabolization”.

Compound `Cn1c2ccccc2c2c1cc(-c1noc(C(F)(F)F)n1)c(=O)n2-c1ccc([N+](=O)[O-])cc1` [Compound 72, 5-Methyl-1-(4-nitro-phenyl)-3-(5-trifluoromethyl-[1,2,4]oxadiazol-3-yl)-1,5-dihydropyrido[3,2-b]indol-2-one] has an EC50 (wild type HIV-LAI strain) of under 1 µM.

For `N#Cc1cc2[nH]c3ccccc3c2n(-c2ccc([N+](=O)[O-])cc2)c1=O` [Compound 1, 1-(4-nitrophenyl)-2-oxo-2,5-dihydro-1H-pyrido[3,2-b]indole-3-carbonitrile], the “fold resistance mutant J (between brackets)” value [2] was 5, the “fold resistance mutant I (between brackets)” value [3] was 3 and the “fold resistance mutant D (between brackets)” value [4] was 3. The “fold resistance mutant E (between brackets)” value (HIV mutant E (F227C)) was 6, the “fold resistance mutant F (between brackets)” value (HIV mutant F (Y188L)) was 4 and the “fold resistance mutant K (between brackets)” value [5] was 1. The “fold resistance mutant C (between brackets)” value [6] was 8, the “fold resistance mutant B (between brackets)” value (HIV mutant B (K103N)) was 4 and the “fold resistance mutant G (between brackets)” value [7] was 2. The “fold resistance mutant H (between brackets)” value [8] was 5, the “fold resistance mutant A (between brackets)” value (HIV mutant A (Y181C)) was 8 and the EC50 (HIV-2) was 6.31 µM. It also gave an EC50 [9] of 7.94 µM.
